Reference: patent publication US10435364B2, “Compounds for use as bromodomain inhibitors” (Albert Ludwigs Universität Freiburg, priority 2013, dated 2019)
Read-outs that look alike come from different tables or passages of the source.

Legend:
BRD3(2) = target: T1, BRD3(2) (Homo sapiens, UniProt Q15059); assay: BROMOscan; format: binding; details: BROMOscan
T1 construct: T7 phage strains displaying bromodomains; host or cells: T7 phage display in E. coli host derived from BL21

leukaemia cell lines = assay: NCI-60 DTP Human Tumour Cell Line Screen, leukaemia panel; format: cell-based; details: NCI-60 screen, 10 μM
OVCAR-5 = assay: NCI-60 DTP Human Tumour Cell Line Screen; format: cell-based; details: NCI-60 screen, 10 μM, ovarian cancer
SR = assay: NCI-60 DTP Human Tumour Cell Line Screen; format: cell-based; details: NCI-60 screen, 10 μM, leukaemia panel
BRD4(1) = target: T2, BRD4(1) (Homo sapiens, UniProt O60885); assay: BROMOscan; format: binding; details: BROMOscan, n=2; read-out: dissociation constant (Kd) in complex with BRD4-BD1
T2 construct: T7 phage strains displaying bromodomains; host or cells: T7 phage display in E. coli host derived from BL21

mice (male and female) = assay: Toxicity screening, single dose; format: in vivo
Text: […]. All studied organs and tissues had the structure characteristics and relative body weights for normal animals.

HeLa = assay: Antiproliferative activity, HeLa cells; format: cell-based; details: at a high concentration of 50 μM
Experimental: BRD4 is a validated therapeutic target in NUT midline carcinoma and in acute myeloid and MLL-fusion leukaemia. The proliferation inhibition potential of the virtual screening hits in HL-60 and HeLa cell lines for the compound of formula (4) was assessed.

CREBBP = target: T3, CREBBP (Homo sapiens, UniProt Q92793); assay: BROMOscan; format: binding; details: BROMOscan; read-out: binding affinity to CREBBP
T3 construct: T7 phage strains displaying bromodomains; host or cells: T7 phage display in E. coli host derived from BL21
Experimental: (§1) Bromodomain profiling was carried out on the basis of BROMOscan™. This platform accounted for the indirect determination of the dissociation constants between 19 bromodomains and the compound of formula (4), by binding competition against a reference immobilized ligand.
(§2) The target selectivity of the compound of formula (4) within the human BRD family was assessed by means of BROMOscan™. The binding of the compound to at least one representative protein of each BRD family was assessed.
(§3) Bromodomain profiling was carried out on the basis of BROMOscan™, which is a leading platform for identifying small molecule bromodomain inhibitors. BROMOscan™ employs a proprietary ligand binding site-directed competition assay to quantitatively measure interactions between test compounds and bromodomains. The reliable assay panel is suitable for high-throughput screening and delivers quantitative ligand binding data.
(§4) Compounds that bind the bromodomain prevent its binding to the immobilized ligand thus reducing the amount of protein captured. […] Hits are identified by measuring the amount of bromodomain captured in test versus control samples.
(§5) Bromodomain assays: T7 phage strains displaying bromodomains were grown in parallel in 24-well blocks in an E. coli host derived from the BL21 strain. E. coli were grown to log-phase and infected with T7 phage from a frozen stock (multiplicity of infection=0.4) and incubated with shaking at 32° C. until lysis (90-150 minutes). The lysates were centrifuged (5,000×g) and filtered (0.2 μm) to remove cell debris. […] The bound beads were blocked with excess biotin and washed with blocking buffer (SeaBlock (Pierce), 1% BSA, 0.05% Tween 20, 1 mM DTT) to remove unbound ligand and to reduce non-specific phage binding. […] Test compounds were prepared as 1000× stocks in 100% DMSO and subsequently diluted 1:25 in mono ethylene glycol (MEG). The compounds were then diluted directly into the assays such that the final concentrations of DMSO and MEG were 0.1% and 2.4%, respectively. All reactions were performed in polypropylene 384-well plates in a final volume of 0.02 ml. […] The bromodomain concentration in the eluates was measured by qPCR.
(§6) The % Ctrl values were determined as follows: % Ctrl=[(test compound signal-positive control signal)/(negative control signal-positive control signal)]×100
(§7) For 7 bromodomains other than the bromodomains from the BET family dissociation constants Kd were determined and the results are given in Table 3.

EP300 = target: T4, EP300 (Homo sapiens, UniProt Q09472); assay: BROMOscan; format: binding; details: BROMOscan; read-out: binding affinity to EP300
T4 construct: T7 phage strains displaying bromodomains; host or cells: T7 phage display in E. coli host derived from BL21
T4 sequence (Q09472 1049-1156 limits assumed): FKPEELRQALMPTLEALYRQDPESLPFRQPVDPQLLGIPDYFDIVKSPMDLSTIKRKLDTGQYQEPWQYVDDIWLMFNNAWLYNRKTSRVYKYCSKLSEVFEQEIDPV
Experimental: as §1, §2, §3, §4, §5, §6, §7

BRD2(1) = target: T5, BRD2(1) (Homo sapiens, UniProt P25440); assay: BROMOscan; format: binding; details: BROMOscan
T5 construct: T7 phage strains displaying bromodomains; host or cells: T7 phage display in E. coli host derived from BL21

BRD4-BD1 = target: T6, BRD4-BD1 (Homo sapiens, UniProt O60885); assay: Isothermal titration calorimetry (ITC), dissociation constant; format: binding
T6 construct: BRD4-BD1 was expressed and purified as described previously; made in house
Experimental: Data were obtained in discrete titration experiments with an injection volume of 12 μl per injection. Subsequently, the heats per injection were calculated as integrals and after normalization against the molar concentrations plotted against the molar ratio as implemented in Microcal Origin. Finally, data were fitted according to a single set of sites binding model with
[formula] as function to calculate the overall sum of heat of the titration and with
[formula] […] A correction term was included to compensate for displacement of volume of the sample cell in the course of subsequent injections according to the manufacturer's manual “ITC Data Analysis in Origin” (Microcal).
The dissociation constant has molar units which correspond to the concentration of ligand at which the binding site on a particular protein is half occupied, i.e. the concentration of the ligand at which the concentration of protein with ligand bound equals the concentration of protein with no ligand bound. The smaller the dissociation constant, the higher the affinity between ligand and protein.

BRD3(1) = target: T7, BRD3(1) (Homo sapiens, UniProt Q15059); assay: BROMOscan; format: binding; details: BROMOscan
T7 construct: T7 phage strains displaying bromodomains; host or cells: T7 phage display in E. coli host derived from BL21

BET bromodomain family = tested on: T8, BET bromodomain family; assay: BROMOscan selectivity profile; format: binding, human
T8 construct: other: BROMOscan
Experimental: as §1, §2
Sphere size and colour indicate the binding affinity of the compound of formula (4) to the specific BRDs, as observed in the BROMOscan™ assay. Additionally, binding to PB1-BD4 was assessed by local ITC measurements. The dissociation constant (Kd) corresponding to each BRD in complex with the compound of formula (4) is indicated. […]

COLO 205 = assay: NCI-60 DTP Human Tumour Cell Line Screen; format: cell-based; details: NCI-60 screen, 10 μM, colon cancer
HL-60(TB) = assay: NCI-60 DTP Human Tumour Cell Line Screen; format: cell-based; details: NCI-60 screen, 10 μM, leukaemia panel

T7 sequence (Q15059 34-140 limits assumed): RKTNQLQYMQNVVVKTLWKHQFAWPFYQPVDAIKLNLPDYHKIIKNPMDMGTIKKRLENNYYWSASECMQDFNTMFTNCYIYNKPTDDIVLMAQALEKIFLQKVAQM
T3 sequence (Q92793 1085-1192 limits assumed): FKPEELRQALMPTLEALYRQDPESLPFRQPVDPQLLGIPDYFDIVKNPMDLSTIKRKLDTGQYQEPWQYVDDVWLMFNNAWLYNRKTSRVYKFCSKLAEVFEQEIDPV
T1 sequence (Q15059 306-415 limits assumed): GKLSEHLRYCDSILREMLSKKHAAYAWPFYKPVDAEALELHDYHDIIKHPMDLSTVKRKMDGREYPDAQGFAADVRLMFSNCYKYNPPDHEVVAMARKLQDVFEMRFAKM
T5 sequence (P25440 74-180 limits assumed): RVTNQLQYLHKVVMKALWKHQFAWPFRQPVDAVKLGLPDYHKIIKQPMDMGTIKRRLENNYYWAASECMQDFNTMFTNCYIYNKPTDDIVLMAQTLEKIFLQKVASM

CCc1c(C(=O)Nc2cc(S(=O)(=O)N(CC)CC)ccc2O)[nH]c(C)c1C(C)=O [compound of formula (4)]
affinity to BRD3 (both BRDs), BD2 (BRD3(2)): nM range | activity against the leukaemia cell lines (leukaemia cell lines): potent and selective activity | sensitivity in the cell line screen (growth inhibition) (OVCAR-5): most resistant | sensitivity in the cell line screen (growth inhibition) (SR): most sensitive | Kd (BRD4(1)): 160 nM | LD50 (mice (male and female); mice (male and female), single dose): higher than 2000 mg/kg of body weight | signs of toxicity (mice (male and female); mouse, in vivo, 2000 mg/kg): did not induce any signs of toxicity | antiproliferative activity against HeLa (HeLa): no antiproliferative activity | Kd (CREBBP): ~3500 nM | Kd (EP300): ~3500 nM | affinity to BRD2-BD1 (BRD2(1)): nM range | Kd (BRD4-BD1; ITC, 25° C., read-out: dissociation constant Kd for BRD4-BD1): 300 nM | Kd (BRD4-BD1; Table 1, target not given, values of formula (4) and (3) match ITC Kd for BRD4-BD1, read-out: pKd (converted)): 316 nM | affinity to BRD3 (both BRDs), BD1 (BRD3(1)): nM range | binding specificity within the human BRD family (BET bromodomain family): bind specifically to the BET bromodomain family | sensitivity in the cell line screen (growth inhibition) (COLO 205): most resistant | sensitivity in the cell line screen (growth inhibition) (HL-60(TB)): most sensitive
